Data as given in patent US9266878B2, “Phosphatidylinositol 3-kinase inhibitors” (Gilead Calistoga LLC, priority 2012, dated 2016).

Legend:
Experiment in all cases: Enzymatic activity of PI3K isoforms, TR-FRET assay (PIP3 formation)
Assay type in all cases: biochemical
PI3Kα = PI3Kα (Homo sapiens (Human), UniProt P42336)
Outline: (§1)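 Heterodimeric recombinant class I PI3K; PIP3 product displaces labeled PIP3 from GRP-1 PH domain, lowering TR-FRET. Reaction 30 min at 25° C, stopped with 10 mM EDTA, 10 nM labeled-PIP3, 35 nM Eu-GRP-1. Read Ex 340 nm, Em 615/665 nm; IC50 in nM.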

PI3Kδ = PI3Kδ (Homo sapiens (Human), UniProt O00329); conditions: bound given in nM
PI3Kδ, sequence (O00329 whole entry): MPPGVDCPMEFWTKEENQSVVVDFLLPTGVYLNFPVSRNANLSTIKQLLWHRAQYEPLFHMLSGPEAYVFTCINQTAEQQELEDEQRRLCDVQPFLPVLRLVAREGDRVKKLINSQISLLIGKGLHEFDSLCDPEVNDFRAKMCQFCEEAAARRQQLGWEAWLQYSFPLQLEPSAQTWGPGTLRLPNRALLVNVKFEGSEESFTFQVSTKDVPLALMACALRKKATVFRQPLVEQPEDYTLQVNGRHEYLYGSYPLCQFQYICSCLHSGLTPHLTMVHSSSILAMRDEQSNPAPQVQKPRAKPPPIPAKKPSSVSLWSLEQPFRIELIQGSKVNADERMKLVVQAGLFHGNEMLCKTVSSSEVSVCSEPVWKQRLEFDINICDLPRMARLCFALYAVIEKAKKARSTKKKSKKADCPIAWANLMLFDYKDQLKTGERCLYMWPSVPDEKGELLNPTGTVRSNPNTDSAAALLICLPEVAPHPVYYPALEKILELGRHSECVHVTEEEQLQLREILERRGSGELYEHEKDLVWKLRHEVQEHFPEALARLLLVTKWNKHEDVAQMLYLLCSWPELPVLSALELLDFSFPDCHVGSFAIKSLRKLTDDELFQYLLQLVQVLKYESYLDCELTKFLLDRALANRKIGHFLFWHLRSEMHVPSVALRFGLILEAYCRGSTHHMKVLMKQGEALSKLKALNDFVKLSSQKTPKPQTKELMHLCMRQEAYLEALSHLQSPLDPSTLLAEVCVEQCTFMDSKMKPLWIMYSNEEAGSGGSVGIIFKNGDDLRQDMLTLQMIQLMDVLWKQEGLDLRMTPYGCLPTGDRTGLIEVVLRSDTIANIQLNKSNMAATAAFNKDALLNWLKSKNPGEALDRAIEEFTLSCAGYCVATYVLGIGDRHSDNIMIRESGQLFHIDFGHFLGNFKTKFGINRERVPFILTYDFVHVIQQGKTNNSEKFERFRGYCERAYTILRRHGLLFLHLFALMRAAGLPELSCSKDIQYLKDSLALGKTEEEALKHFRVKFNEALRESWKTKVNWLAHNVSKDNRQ
PI3Kδ, sequence (P27986 whole entry partner): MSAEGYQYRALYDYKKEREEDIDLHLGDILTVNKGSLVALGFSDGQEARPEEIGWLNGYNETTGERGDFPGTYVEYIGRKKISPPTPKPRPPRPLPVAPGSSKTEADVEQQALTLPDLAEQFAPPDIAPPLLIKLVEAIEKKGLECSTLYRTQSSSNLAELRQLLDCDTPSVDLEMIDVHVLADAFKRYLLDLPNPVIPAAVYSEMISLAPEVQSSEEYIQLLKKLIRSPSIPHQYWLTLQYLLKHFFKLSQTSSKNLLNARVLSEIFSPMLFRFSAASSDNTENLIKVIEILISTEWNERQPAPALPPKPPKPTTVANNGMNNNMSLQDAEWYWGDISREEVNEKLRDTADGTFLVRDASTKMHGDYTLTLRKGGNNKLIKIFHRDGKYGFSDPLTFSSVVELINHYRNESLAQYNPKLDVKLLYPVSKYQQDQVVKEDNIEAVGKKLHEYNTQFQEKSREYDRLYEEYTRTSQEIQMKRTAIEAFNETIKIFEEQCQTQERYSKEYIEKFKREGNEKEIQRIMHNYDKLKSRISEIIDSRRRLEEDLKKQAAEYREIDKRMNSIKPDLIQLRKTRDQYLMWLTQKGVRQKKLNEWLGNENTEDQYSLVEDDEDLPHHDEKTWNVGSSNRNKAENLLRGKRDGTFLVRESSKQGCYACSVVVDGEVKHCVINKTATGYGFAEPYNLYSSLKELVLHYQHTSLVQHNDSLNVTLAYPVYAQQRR
Outline: as §1

PI3Kβ = PI3Kβ (Homo sapiens (Human), UniProt P42338)
PI3Kβ, sequence (P42338 whole entry, the tested form may be a part): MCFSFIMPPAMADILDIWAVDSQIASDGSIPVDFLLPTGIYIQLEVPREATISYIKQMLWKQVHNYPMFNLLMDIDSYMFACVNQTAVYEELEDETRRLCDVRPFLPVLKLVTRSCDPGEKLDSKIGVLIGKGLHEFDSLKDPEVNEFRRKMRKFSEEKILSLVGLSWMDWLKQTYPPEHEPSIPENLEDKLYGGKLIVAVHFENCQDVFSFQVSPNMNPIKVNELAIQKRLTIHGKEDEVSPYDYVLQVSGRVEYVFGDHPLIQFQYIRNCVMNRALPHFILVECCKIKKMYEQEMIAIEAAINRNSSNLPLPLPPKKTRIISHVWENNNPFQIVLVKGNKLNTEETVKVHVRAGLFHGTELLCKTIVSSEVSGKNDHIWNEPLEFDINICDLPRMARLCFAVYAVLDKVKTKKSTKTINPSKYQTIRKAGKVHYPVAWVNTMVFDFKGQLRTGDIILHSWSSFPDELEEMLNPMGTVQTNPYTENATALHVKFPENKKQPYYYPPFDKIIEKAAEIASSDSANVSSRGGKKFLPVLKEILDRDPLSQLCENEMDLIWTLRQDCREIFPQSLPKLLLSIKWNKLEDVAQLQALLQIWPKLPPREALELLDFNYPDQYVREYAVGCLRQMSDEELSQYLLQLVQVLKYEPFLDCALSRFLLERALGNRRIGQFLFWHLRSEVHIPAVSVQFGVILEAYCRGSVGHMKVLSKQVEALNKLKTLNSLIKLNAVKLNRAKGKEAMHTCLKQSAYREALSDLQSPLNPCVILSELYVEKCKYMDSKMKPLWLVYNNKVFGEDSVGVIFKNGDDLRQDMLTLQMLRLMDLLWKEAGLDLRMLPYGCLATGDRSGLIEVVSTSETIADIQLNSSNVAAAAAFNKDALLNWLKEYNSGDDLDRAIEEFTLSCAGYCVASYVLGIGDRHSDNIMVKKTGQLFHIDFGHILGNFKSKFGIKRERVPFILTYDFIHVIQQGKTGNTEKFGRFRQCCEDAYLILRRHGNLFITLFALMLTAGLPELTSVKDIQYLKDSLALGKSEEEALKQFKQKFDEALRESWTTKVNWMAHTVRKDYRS
PI3Kβ, sequence (P27986 whole entry partner, the tested form may be a part): as the sequence (P27986 whole entry partner) above
Outline: (§2)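 Recombinant heterodimeric class I PI3K enzymes were assayed by TR-FRET. PIP3 product displaces fluorescently labelled PIP3 from the GRP-1 PH domain, lowering the signal; IC50 values are given in nM.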

PI3Kγ = PI3Kγ (Homo sapiens (Human), UniProt P48736)
PI3Kγ, sequence (P48736 whole entry): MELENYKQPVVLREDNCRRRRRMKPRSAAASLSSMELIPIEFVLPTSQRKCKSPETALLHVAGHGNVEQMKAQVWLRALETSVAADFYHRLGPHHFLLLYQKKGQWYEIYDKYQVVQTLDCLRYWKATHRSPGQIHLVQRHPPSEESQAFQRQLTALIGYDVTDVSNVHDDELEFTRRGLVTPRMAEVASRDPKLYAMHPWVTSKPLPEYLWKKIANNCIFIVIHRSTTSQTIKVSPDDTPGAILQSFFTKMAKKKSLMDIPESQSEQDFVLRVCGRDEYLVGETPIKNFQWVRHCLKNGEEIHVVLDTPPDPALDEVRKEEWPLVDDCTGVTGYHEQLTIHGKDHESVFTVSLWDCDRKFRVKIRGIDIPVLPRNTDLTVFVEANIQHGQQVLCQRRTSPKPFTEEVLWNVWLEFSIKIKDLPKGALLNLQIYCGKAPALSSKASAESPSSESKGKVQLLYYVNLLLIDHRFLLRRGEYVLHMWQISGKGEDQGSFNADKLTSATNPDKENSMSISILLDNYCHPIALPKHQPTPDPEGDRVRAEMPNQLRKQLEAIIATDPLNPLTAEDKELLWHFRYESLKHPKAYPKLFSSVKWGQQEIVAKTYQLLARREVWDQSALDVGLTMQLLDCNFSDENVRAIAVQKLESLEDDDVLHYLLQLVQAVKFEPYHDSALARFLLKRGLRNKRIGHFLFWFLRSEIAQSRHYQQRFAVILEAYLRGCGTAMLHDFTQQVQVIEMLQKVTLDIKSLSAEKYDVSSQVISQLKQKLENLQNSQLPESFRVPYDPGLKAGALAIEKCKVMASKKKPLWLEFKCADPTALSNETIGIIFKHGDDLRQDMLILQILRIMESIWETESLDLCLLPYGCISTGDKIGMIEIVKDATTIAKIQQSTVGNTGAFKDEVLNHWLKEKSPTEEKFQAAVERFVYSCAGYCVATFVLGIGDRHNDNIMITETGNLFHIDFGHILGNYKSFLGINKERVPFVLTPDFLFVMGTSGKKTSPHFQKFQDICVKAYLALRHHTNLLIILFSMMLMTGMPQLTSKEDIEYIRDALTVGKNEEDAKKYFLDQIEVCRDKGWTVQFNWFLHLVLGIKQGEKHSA
PI3Kγ, sequence (Q8WYR1 whole entry partner): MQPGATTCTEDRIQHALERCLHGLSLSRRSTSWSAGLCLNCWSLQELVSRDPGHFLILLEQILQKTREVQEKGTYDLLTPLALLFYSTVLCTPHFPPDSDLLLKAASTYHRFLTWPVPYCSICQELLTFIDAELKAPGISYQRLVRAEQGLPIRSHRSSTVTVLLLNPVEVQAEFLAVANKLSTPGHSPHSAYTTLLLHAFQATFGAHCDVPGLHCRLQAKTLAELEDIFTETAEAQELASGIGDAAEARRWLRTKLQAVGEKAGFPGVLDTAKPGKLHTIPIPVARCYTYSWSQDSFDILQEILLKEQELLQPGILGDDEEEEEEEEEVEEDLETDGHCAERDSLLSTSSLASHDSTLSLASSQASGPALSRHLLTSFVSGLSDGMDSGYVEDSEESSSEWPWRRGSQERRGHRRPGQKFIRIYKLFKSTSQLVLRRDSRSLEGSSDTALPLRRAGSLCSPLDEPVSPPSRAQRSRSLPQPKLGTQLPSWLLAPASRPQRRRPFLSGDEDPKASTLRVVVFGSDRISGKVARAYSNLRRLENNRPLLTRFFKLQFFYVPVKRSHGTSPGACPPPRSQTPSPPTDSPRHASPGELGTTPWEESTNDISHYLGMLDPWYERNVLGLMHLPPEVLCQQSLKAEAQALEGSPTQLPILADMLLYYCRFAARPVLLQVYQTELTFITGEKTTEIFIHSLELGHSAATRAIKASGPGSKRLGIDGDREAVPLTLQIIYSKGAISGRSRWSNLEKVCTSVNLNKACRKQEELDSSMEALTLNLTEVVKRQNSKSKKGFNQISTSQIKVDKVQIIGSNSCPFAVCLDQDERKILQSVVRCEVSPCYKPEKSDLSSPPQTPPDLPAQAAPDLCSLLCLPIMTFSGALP
Outline: as §2

IC50 (PI3Kα; bound given in uM) [µM]	IC50 (PI3Kδ) [nM]	IC50 (PI3Kβ; bound given in uM) [µM]	IC50 (PI3Kγ; bound given in uM) [µM]	IC50 (PI3Kα; bound given in nM) [µM]	IC50 (PI3Kβ; bound given in nM) [µM]	IC50 (PI3Kγ; bound given in nM) [µM]	SMILES
> 1	< 100	> 1	> 1	–	–	–	C[C@H](Nc1ncnc(N)c1C#Cc1ccccc1)c1nc2cccc(F)c2c(=O)n1-c1cccc(C#N)c1 [Compound 110a, (S)-3-(2-(1-((6-amino-5-(phenylethynyl)pyrimidin-4-yl)amino)ethyl)-5-fluoro-4-oxoquinazolin-3(4H)-yl)benzonitrile]
> 1	< 100	> 1	> 1	–	–	–	C[C@H](Nc1ncnc(N)c1C#C[C@@H](C)O)c1nc2cccc(Cl)c2c(=O)n1-c1cc(F)cc(F)c1 [Compound 20a, 2-((S)-1-(6-amino-5-((R)-3-hydroxybut-1-ynyl)pyrimidin-4-ylamino)ethyl)-5-chloro-3-(3,5-difluorophenyl)quinazolin-4(3H)-one]
–	< 100	–	–	< 0.1	< 0.1	< 0.1	C[C@H](Nc1ncnc(N)c1C#Cc1cnc(N)cc1C(F)(F)F)c1nc2cccc(Cl)c2c(=O)n1-c1ccccc1 [Compound 18a, (S)-2-(1-(6-amino-5-((6-amino-4-(trifluoromethyl)pyridin-3-yl)ethynyl)pyrimidin-4-ylamino)ethyl)-5-chloro-3-phenylquinazolin-4(3H)-one]
> 1	< 100	> 1	> 1	–	–	–	C[C@H](Nc1ncnc(N)c1C#CC(C)(C)O)c1nc2cccc(Cl)c2c(=O)n1-c1cc(F)cc(F)c1 [Compound 28a, (S)-2-(1-(6-amino-5-(3-hydroxy-3-methylbut-1-ynyl)pyrimidin-4-ylamino)ethyl)-5-chloro-3-(3,5-difluorophenyl)quinazolin-4(3H)-one]
> 1	< 100	> 1	> 1	–	–	–	C[C@H](Nc1ncnc(N)c1C#Cc1ccc(C(=O)O)cn1)c1nc2cccc(Cl)c2c(=O)n1-c1ccccc1 [Compound 138a, (S)-6-((4-amino-6-((1-(5-chloro-4-oxo-3-phenyl-3,4-dihydroquinazolin-2-yl)ethyl)amino)pyrimidin-5-yl)ethynyl)nicotinic acid]
> 1	< 100	> 1	> 1	–	–	–	C[C@H](Nc1ncnc(N)c1C#Cc1cnccn1)c1nc2ccc(F)cc2c(=O)n1-c1cccc(C#N)c1 [Compound 95a, (S)-3-(2-(1-((6-amino-5-(pyrazin-2-ylethynyl)pyrimidin-4-yl)amino)ethyl)-6-fluoro-4-oxoquinazolin-3(4H)-yl)benzonitrile]
> 1	< 100	> 1	> 1	–	–	–	C[C@H](Nc1ncnc(N)c1C#Cc1cnccn1)c1nc2cccc(Cl)c2c(=O)n1N1CCCCCC1 [Compound 126a, (S)-2-(1-((6-amino-5-(pyrazin-2-ylethynyl)pyrimidin-4-yl)amino)ethyl)-3-(azepan-1-yl)-5-chloroquinazolin-4(3H)-one]
> 1	< 100	> 1	> 1	–	–	–	CC(C)CS(=O)(=O)NCc1cccc(-n2c([C@H](C)Nc3ncnc(N)c3C#Cc3ccc(F)cn3)nc3cccc(Cl)c3c2=O)c1 [Compound 131a, (S)—N-(3-(2-(1-((6-amino-5-((5-fluoropyridin-2-yl)ethynyl)pyrimidin-4-yl)amino)ethyl)-5-chloro-4-oxoquinazolin-3(4H)-yl)benzyl)-2-methylpropane-1-sulfonamide]
> 1	< 100	> 1	> 1	–	–	–	Cc1cccc2c(=O)n(-c3ccccc3)c([C@H](C)Nc3ncnc(N)c3C#Cc3ccc(F)cn3)nc12 [Compound 56a, (S)-2-(1-((6-amino-5-((5-fluoropyridin-2-yl)ethynyl)pyrimidin-4-yl)amino)ethyl)-8-methyl-3-phenylquinazolin-4(3H)-one]
> 1	< 100	> 1	> 1	–	–	–	C[C@H](Nc1ncnc(N)c1C#CC(C)(C)O)c1nc2cccc(Cl)c2c(=O)n1-c1ccccc1 [Compound 29a, (S)-2-(1-(6-amino-5-(3-hydroxy-3-methylbut-1-ynyl)pyrimidin-4-ylamino)ethyl)-5-chloro-3-phenylquinazolin-4(3H)-one]
> 1	< 100	> 1	> 1	–	–	–	COc1cccc(-n2c([C@H](C)Nc3ncnc(N)c3C#Cc3ncccc3F)nc3cccc(Cl)c3c2=O)c1C [81-2a]
> 1	< 100	> 1	> 1	–	–	–	C[C@H](Nc1ncnc(N)c1C#Cc1ccc(F)cn1)c1nc2cccc(Cl)c2c(=O)n1-c1cccc(CNS(C)(=O)=O)c1 [Compound 130a, (S)—N-(3-(2-(1-((6-amino-5-((5-fluoropyridin-2-yl)ethynyl)pyrimidin-4-yl)amino)ethyl)-5-chloro-4-oxoquinazolin-3(4H)-yl)benzyl)methanesulfonamide]
> 1	< 100	> 1	> 1	–	–	–	CCc1cccc(-n2c([C@H](C)Nc3ncnc(N)c3C#Cc3ccc(F)cn3)nc3cccc(Cl)c3c2=O)c1 [Compound 61a, (S)-2-(1-((6-amino-5-((5-fluoropyridin-2-yl)ethynyl)pyrimidin-4-yl)amino)ethyl)-5-chloro-3-(3-ethylphenyl)quinazolin-4(3H)-one]
> 1	< 100	> 1	> 1	–	–	–	C[C@H](Nc1ncnc(N)c1C#Cc1ccc(F)cn1)c1nc2cccc(Cl)c2c(=O)n1-c1cc(F)cc(F)c1 (single isomer, unassigned) [Compound 9a]
> 1	< 100	> 1	> 1	–	–	–	C[C@H](Nc1ncnc(N)c1C#Cc1ncccn1)c1nc2cccc(Cl)c2c(=O)n1-c1cc(F)cc(F)c1 [Compound 103a, (S)-2-(1-((6-amino-5-(pyrimidin-2-ylethynyl)pyrimidin-4-yl)amino)ethyl)-5-chloro-3-(3,5-difluorophenyl)quinazolin-4(3H)-one]
> 1	< 100	> 1	> 1	–	–	–	C[C@H](Nc1ncnc(N)c1C#Cc1ccc(F)cn1)c1nc2c(F)cccc2c(=O)n1-c1cc(F)cc(F)c1 [Compound 2a, (S)-2-(1-((6-amino-5-((5-fluoropyridin-2-yl)ethynyl)pyrimidin-4-yl)amino)ethyl)-3-(3,5-difluorophenyl)-8-fluoroquinazolin-4(3H)-one]
> 1	< 100	> 1	> 1	–	–	–	C[C@H](Nc1ncnc(N)c1C#Cc1cnccn1)c1nc2cccc(C(F)F)c2c(=O)n1-c1cccc(C#N)c1 [Compound 71a, (S)-3-(2-(1-((6-amino-5-(pyrazin-2-ylethynyl)pyrimidin-4-yl)amino)ethyl)-5-(difluoromethyl)-4-oxoquinazolin-3(4H)-yl)benzonitrile]
> 1	< 100	> 1	> 1	–	–	–	C[C@H](Nc1ncnc(N)c1C#Cc1cncnc1)c1nc2cccc(Cl)c2c(=O)n1-c1cc(F)cc(F)c1 [Compound 41a, (S)-2-(1-(6-amino-5-(pyrimidin-5-ylethynyl)pyrimidin-4-ylamino)ethyl)-5-chloro-3-(3,5-difluorophenyl)quinazolin-4(3H)-one]
> 1	< 100	> 1	> 1	–	–	–	Cc1ccc(Cl)c2c(=O)n(-c3ccccc3)c([C@H](C)Nc3ncnc(N)c3C#Cc3ccc(F)cn3)nc12 [Compound 53a, (S)-2-(1-((6-amino-5-((5-fluoropyridin-2-yl)ethynyl)pyrimidin-4-yl)amino)ethyl)-5-chloro-8-methyl-3-phenylquinazolin-4(3H)-one]
> 1	< 100	> 1	> 1	–	–	–	C[C@H](Nc1ncnc(N)c1C#Cc1ccc(F)cn1)c1nc2ccc(F)cc2c(=O)n1-c1ccccc1 [Compound 90a, (S)-2-(1-((6-amino-5-((5-fluoropyridin-2-yl)ethynyl)pyrimidin-4-yl)amino)ethyl)-6-fluoro-3-phenylquinazolin-4(3H)-one]
> 1	< 100	> 1	> 1	–	–	–	CCCCc1cccc(-n2c([C@H](C)Nc3ncnc(N)c3C#Cc3ccc(F)cn3)nc3cccc(Cl)c3c2=O)c1 [Compound 57a, (S)-2-(1-((6-amino-5-((5-fluoropyridin-2-yl)ethynyl)pyrimidin-4-yl)amino)ethyl)-3-(3-butylphenyl)-5-chloroquinazolin-4(3H)-one]
> 1	< 100	> 1	> 1	–	–	–	C[C@H](O)C#Cc1c(N)ncnc1N[C@@H](C)c1nc2cccc(Cl)c2c(=O)n1-c1cc(F)cc(F)c1 [Compound 20b, 2-((S)-1-(6-amino-5-((S)-3-hydroxybut-1-ynyl)pyrimidin-4-ylamino)ethyl)-5-chloro-3-(3,5-difluorophenyl)quinazolin-4(3H)-one]
> 1	< 100	> 1	> 1	–	–	–	C[C@H](Nc1ncnc(N)c1C#Cc1cnccn1)c1nc2cccc(C(F)F)c2c(=O)n1-c1cc(F)cc(F)c1 [Compound 66a, (S)-2-(1-((6-amino-5-(pyrazin-2-ylethynyl)pyrimidin-4-yl)amino)ethyl)-5-(difluoromethyl)-3-(3,5-difluorophenyl)quinazolin-4(3H)-one]
